Three molecules from ChEMBL document CHEMBL5113441, “Exploration of 4-(1H-indol-3-yl)cyclohex-3-en-1-amine analogues as HDAC inhibitors: Design, synthesis, biological evaluation and modelling studies” (Bioorg Med Chem Lett, 2022) can be followed below.

Active and inactive are the calls of the source. The calls are words filed in the database; no cut-off is given here.

The species entered for data set [1] is Homo sapiens. The data set can be described thus: Selectivity ratio of IC50 for HDAC6 (unknown origin) to IC50 for HDAC1 (unknown origin).
In the next data set the target is Histone deacetylase 3 (Homo sapiens, UniProt O15379). The data set can be described thus: Inhibition of HDAC3 (unknown origin).
Histone deacetylase 3, sequence (O15379 whole entry): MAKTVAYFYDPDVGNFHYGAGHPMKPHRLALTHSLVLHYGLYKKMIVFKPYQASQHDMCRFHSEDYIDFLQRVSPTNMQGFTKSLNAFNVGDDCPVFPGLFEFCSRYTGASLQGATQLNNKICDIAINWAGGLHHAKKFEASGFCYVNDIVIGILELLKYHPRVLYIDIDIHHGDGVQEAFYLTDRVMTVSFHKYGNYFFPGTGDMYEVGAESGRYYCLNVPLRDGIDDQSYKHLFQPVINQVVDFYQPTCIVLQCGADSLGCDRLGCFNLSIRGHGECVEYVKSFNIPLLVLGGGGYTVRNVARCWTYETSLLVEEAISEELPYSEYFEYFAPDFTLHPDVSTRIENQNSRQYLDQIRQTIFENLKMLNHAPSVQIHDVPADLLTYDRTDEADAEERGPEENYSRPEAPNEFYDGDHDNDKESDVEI
Data set [2] has as its system HCT-116. In words: Cell cycle arrest in human HCT-116 cells assessed as increase in accumulation at G2/M phase measured after 48 hrs by propidium iodide staining based flow cytometry. It counts as functional. The following applies: dose 50-200 nM, DDE = dose-dependent effect. A general note: In flow cytometry, cells or beads pass a laser one at a time.
A further data set has as its target Histone deacetylase 1 (Homo sapiens, UniProt Q13547). In words: Inhibition of HDAC1 (unknown origin).
Data set [3] deals with HCT-116. The data set can be described thus: Induction of apoptosis in human HCT-116 cells assessed as apoptotic cells at 200 nM measured after 48 hrs by Annexin-FITC/propidium iodide staining based flow cytometry relative to control. It is filed as functional.
For data set [4], the system named is HCT-116. In words: Antiproliferative activity against human HCT-116 cells measured after 72 hrs. It counts as functional, cell-based. The following applies: HCT-116, 72 h.
Data set [5] is described as follows: Selectivity index, ratio of IC50 for human L02 cells to IC50 for human A549 cells. It is filed as toxicity. To be noted: L02 cells and A549 cells, read-out: Ratio IC50.
Another data set has as its system MCF7. In words: Antiproliferative activity against human MCF7 cells measured after 72 hrs. It is filed as functional, cell-based. To be noted: MCF7, 72 h.
The next data set deals with A549. In words: Antiproliferative activity against human A549 cells measured after 72 hrs. To be noted: A549, 72 h. It counts as functional, cell-based.
For data set [6], the species on record is Homo sapiens. The data set can be described thus: Selectivity ratio of IC50 for HDAC6 (unknown origin) to IC50 for HDAC3 (unknown origin).
The subject of a further data set is SW480. The data set can be described thus: Antiproliferative activity against human SW480 cells measured after 72 hrs. It is filed as functional, cell-based. To be noted: SW480, 72 h.
The target of another data set is Histone deacetylase 2 (Homo sapiens, UniProt Q92769). In words: Inhibition of HDAC2 (unknown origin).
Histone deacetylase 2, sequence (Q92769 whole entry): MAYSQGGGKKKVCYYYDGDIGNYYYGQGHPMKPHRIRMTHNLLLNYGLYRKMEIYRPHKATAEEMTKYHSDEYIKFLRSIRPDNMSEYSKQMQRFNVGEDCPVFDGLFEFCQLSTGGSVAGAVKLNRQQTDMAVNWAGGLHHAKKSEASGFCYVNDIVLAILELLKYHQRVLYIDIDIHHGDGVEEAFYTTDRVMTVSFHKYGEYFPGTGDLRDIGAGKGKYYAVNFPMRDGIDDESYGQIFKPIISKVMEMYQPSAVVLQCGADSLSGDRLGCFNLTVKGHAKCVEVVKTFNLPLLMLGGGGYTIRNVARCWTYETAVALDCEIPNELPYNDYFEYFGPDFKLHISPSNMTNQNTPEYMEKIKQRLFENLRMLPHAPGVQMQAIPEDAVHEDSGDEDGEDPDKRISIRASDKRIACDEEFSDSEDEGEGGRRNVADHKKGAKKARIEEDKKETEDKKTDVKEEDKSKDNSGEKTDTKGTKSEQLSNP
Data set [7] can be described thus: Cytotoxicity against human L02 cells measured after 72 hrs.
The subject of data set [8] is HCT-116. In words: Induction of apoptosis in human HCT-116 cells assessed as chromatin condensation measured after 48 hrs by Hoechst 33342 staining based assay. It is filed as functional, cell-based. The following applies: dose 50-200 nM, DDE = dose-dependent effect.
Data set [9] deals with HCT-116. In words: Inhibition of colony formation in human HCT-116 cells. It is filed as functional, cell-based. The following applies: dose 50-200 nM, DDE = dose-dependent effect.
Data set [10] concerns HCT-116. The data set can be described thus: Induction of apoptosis in human HCT-116 cells measured after 48 hrs by Annexin-FITC/propidium iodide staining based flow cytometry. It counts as functional, cell-based. The following applies: dose 50-200 nM, DDE = dose-dependent effect.
Data set [11] is filed under the species Homo sapiens. The data set can be described thus: Selectivity ratio of IC50 for HDAC6 (unknown origin) to IC50 for HDAC2 (unknown origin).
The next data set addresses T1, Histone deacetylase 8 (Homo sapiens, UniProt Q9BY41).
T1 sequence (Q9BY41 whole entry): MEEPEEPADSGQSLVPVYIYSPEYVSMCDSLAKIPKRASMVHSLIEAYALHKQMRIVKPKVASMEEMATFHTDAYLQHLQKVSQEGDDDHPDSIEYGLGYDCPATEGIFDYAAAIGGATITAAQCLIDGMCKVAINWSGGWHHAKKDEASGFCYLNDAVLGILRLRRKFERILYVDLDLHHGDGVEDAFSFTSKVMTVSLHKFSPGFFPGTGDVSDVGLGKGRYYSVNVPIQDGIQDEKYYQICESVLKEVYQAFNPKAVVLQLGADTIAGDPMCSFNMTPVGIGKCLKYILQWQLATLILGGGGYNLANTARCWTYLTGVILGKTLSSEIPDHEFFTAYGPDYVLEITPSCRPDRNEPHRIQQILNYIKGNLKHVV
In words: Inhibition of HDAC8 (unknown origin).

Data set [12] deals with HCT-116. In words: Induction of apoptosis in human HCT-116 cells assessed as appearance of smaller nuclei measured after 48 hrs by Hoechst 33342 staining based assay. To be noted: dose 50-200 nM, DDE = dose-dependent effect. It is filed as functional, cell-based.
Data set [13] relates to HCT-116. The data set can be described thus: Induction of apoptosis in human HCT-116 cells assessed as apoptotic cells at 100 nM measured after 48 hrs by Annexin-FITC/propidium iodide staining based flow cytometry relative to control. It counts as functional.
Data set [14] addresses T2, Protein deacetylase HDAC6 (Homo sapiens, UniProt Q9UBN7).
T2 sequence (Q9UBN7 whole entry): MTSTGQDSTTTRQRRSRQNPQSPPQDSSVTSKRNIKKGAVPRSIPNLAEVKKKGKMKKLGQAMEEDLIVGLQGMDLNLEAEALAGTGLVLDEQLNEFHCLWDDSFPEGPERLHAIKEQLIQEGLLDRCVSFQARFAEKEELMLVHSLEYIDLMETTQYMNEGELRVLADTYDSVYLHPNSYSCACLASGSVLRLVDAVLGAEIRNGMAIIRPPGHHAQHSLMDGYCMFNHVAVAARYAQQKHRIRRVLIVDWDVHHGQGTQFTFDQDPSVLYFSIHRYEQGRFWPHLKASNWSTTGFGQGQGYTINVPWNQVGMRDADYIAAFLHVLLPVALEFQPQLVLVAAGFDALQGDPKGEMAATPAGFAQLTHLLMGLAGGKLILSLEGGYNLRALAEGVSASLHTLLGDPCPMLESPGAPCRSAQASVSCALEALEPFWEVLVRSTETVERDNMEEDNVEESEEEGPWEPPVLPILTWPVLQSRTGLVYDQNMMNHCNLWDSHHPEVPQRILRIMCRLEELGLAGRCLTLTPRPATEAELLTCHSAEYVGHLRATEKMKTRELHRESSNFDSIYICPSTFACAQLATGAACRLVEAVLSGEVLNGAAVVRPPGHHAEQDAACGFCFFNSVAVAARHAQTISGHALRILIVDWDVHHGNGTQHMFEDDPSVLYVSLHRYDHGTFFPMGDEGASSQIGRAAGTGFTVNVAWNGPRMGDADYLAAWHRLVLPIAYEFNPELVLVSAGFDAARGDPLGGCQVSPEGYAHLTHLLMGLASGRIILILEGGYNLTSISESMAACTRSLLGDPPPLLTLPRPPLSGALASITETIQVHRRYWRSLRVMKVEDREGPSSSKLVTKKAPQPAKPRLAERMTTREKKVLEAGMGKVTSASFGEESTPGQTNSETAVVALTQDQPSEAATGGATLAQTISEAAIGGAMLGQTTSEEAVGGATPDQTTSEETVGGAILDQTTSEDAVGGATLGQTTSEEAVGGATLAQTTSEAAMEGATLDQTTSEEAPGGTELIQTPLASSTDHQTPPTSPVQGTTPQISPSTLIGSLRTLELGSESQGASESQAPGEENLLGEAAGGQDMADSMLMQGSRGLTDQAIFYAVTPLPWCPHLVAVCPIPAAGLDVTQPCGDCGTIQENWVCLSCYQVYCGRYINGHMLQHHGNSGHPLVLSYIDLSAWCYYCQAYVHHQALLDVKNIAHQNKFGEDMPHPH
The data set can be described thus: Inhibition of HDAC6 (unknown origin).

The target in data set [15] is T3, Histone deacetylase 1/2/3 (Homo sapiens) (UniProt Q13547+O15379+Q92769). In words: Inhibition of HDAC1/HDAC2/HDAC3 in human HCT-116 cells assessed as increase in accumulation of acetylated histone H4 measured after 48 hrs by Western blot analysis. It counts as cell-based. The following applies: dose 200-800 nM, DDE = dose-dependent effect. In general terms: Immunoblotting shows a protein as a band on a membrane.

Data set [16] concerns HCT-116. The data set can be described thus: Antimigratory activity against human HCT-116 cells at 25 nM measured after 48 hrs by wound healing assay. It is filed as functional, cell-based.
The target of data set [17] is T3, Histone deacetylase 1/2/3 (Homo sapiens). The data set can be described thus: Inhibition of HDAC1/HDAC2/HDAC3 in human HCT-116 cells assessed as increase in accumulation of acetylated histone H3 measured after 48 hrs by Western blot analysis. It counts as cell-based. The following applies: dose 200-800 nM, DDE = dose-dependent effect.
The subject of data set [18] is HCT-116. In words: Induction of apoptosis in human HCT-116 cells at 2000 nM measured after 48 hrs by Annexin-FITC/propidium iodide staining based flow cytometry. It is filed as functional, cell-based.

Histone deacetylase 1, sequence (Q13547 whole entry): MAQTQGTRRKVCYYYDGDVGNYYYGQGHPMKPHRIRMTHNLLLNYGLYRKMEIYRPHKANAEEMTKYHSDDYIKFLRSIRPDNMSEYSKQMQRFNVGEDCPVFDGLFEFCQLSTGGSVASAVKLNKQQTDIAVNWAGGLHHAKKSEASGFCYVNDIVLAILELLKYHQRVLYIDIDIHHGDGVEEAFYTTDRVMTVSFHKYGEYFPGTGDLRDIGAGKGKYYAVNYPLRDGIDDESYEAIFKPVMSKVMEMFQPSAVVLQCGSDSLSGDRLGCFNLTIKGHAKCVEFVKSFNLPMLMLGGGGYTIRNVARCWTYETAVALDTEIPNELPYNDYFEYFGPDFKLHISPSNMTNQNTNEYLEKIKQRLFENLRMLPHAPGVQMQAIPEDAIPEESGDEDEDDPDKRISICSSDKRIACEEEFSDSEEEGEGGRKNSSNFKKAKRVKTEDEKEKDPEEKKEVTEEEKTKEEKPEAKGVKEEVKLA

As to `Cc1[nH]c2ccccc2c1C1=CCC(NCc2ccc(OCC(=O)NO)cc2F)CC1` (centres undefined), the Ratio IC50 in the data set filed under Homo sapiens [1], in the data set filed under Homo sapiens [6] and in the data set listed under Homo sapiens [11] was 3 each time. The IC50 at Histone deacetylase 3 was found to be 0.0038 µM; at Histone deacetylase 1, 0.0016 µM; with HCT-116 [4] it was 0.099 µM; in the data set on MCF7, 0.912 µM; with A549, 0.13 µM; in the data set on SW480, 0.17 µM. The IC50 is 0.0019 µM at Histone deacetylase 2, 0.086 µM on Histone deacetylase 8 and 0.013 µM in data set [14]. Also, the Activity result is “Dde” in the data set on HCT-116 [2]; 91.5% with HCT-116 [3]; “Dde” with HCT-116 [8]; “Dde” in the data set on HCT-116 [10]; “Dde” with HCT-116 [12]; 81.8% with HCT-116 [13]. Besides, in data set [5], the selectivity ratio amounted to 20. The molecule also came in with an IC50 at 72 h in data set [7] of 2.3 µM. Moreover, the inhibition result (with HCT-116 [9]; in data set [15]; in data set [17]) was “Dde” each time. In addition, the outcome in the data set on HCT-116 [16] was Active.

With `O=C(COc1ccc(CNCCc2c[nH]c3ccccc23)c(F)c1)NO`, the IC50 on Histone deacetylase 3 amounted to 0.0063 µM; against Histone deacetylase 1, 0.0021 µM; in the data set on HCT-116 [4] it was 0.046 µM; with MCF7, 0.077 µM; against Histone deacetylase 2, 0.0031 µM; at Histone deacetylase 8 it was 0.09 µM. In data set [14], this molecule came in with an IC50 of 0.014 µM. Also, half-maximal inhibition in [7] (IC50 at 72 h) was put at 1.56 µM.

For the molecule `O=C(CCCCCCC(=O)Nc1ccccc1)NO` [VORINOSTAT], in the data set on HCT-116 [18], the result was Active. Also, inhibition in the data set with SW480 was half-maximal at 2.12 µM (IC50).

The IC50 is the midpoint of a concentration-inhibition curve. Low readings indicate inhibition by little substance, high ones a need for much substance.
